Each molecule was assayed on GM1 production in Jurkat cells (assay: cells). Conditions: not given.
Type: cell-based
In the case of `CC1(C)Cc2ccc(-c3cccc(OC(F)(F)F)c3)cc2C1NC(=O)O[C@@H]1CN2CCC1CC2` (stereo partly drawn) [Example 56, (S)-quinuclidin-3-yl (2,2-dimethyl-6-(3-(trifluoromethoxy)phenyl)-2,3-dihydro-1H-inden-1-yl)carbamate], the IC50 is reported as 210 nM. Molecule `CC1(C)Cc2ccc(-c3cccc(OC(F)(F)F)c3)cc2C1NC(=O)O[C@@H]1CN2CCC1CC2` (stereo partly drawn) [Example 80, (S)-quinuclidin-3-yl (2,2-dimethyl-6-(3-(trifluoromethoxy)phenyl)-2,3-dihydro-1H-inden-1-yl)carbamate] has an IC50 of 4.1 nM.

Same assay, conditions: Homo sapiens, Jurkat, 72 h
In the case of `CC1(C)Cc2ccc(-c3ccc(F)cc3)cc2C1NC(=O)O[C@@H]1CN2CCC1CC2` (stereo partly drawn) [Example 49, (S)-quinuclidin-3-yl (6-(4-fluorophenyl)-2,2-dimethyl-2,3-dihydro-1H-inden-1-yl)carbamate], the IC50 is reported as 61.4 nM. With `CC1(C)Cc2ccc(-c3ccc(Cl)cc3)cc2C1NC(=O)O[C@@H]1CN2CCC1CC2` (stereo partly drawn) [Example 50, (S)-quinuclidin-3-yl (6-(4-chlorophenyl)-2,2-dimethyl-2,3-dihydro-1H-inden-1-yl)carbamate] the IC50 was 52.3 nM. `CC1(C)Cc2ccc(-c3ccc(C(F)(F)F)cc3)cc2C1NC(=O)O[C@@H]1CN2CCC1CC2` (stereo partly drawn) [Example 51, (S)-quinuclidin-3-yl (2,2-dimethyl-6-(4-(trifluoromethyl)phenyl)-2,3-dihydro-1H-inden-1-yl)carbamate] was tested, and the IC50 was 30.2 nM. `CC1(C)Cc2ccc(-c3ccc(OC(F)(F)F)cc3)cc2C1NC(=O)O[C@@H]1CN2CCC1CC2` (stereo partly drawn) [Example 52, (S)-quinuclidin-3-yl (2,2-dimethyl-6-(4-(trifluoromethoxy)phenyl)-2,3-dihydro-1H-inden-1-yl)carbamate] showed an IC50 of 82.3 nM. `CC1(C)Cc2ccc(-c3cccc(F)c3)cc2C1NC(=O)O[C@@H]1CN2CCC1CC2` (stereo partly drawn) [Example 53, (S)-quinuclidin-3-yl (6-(3-fluorophenyl)-2,2-dimethyl-2,3-dihydro-1H-inden-1-yl)carbamate] gave an IC50 of 80 nM. `CC1(C)Cc2ccc(-c3cccc(Cl)c3)cc2C1NC(=O)O[C@@H]1CN2CCC1CC2` (stereo partly drawn) [Example 54, (S)-quinuclidin-3-yl (6-(3-chlorophenyl)-2,2-dimethyl-2,3-dihydro-1H-inden-1-yl)carbamate] showed an IC50 of 161 nM. Work on `CC1(C)Cc2ccc(-c3cccc(C(F)(F)F)c3)cc2C1NC(=O)O[C@@H]1CN2CCC1CC2` (stereo partly drawn) [Example 55, (S)-quinuclidin-3-yl (2,2-dimethyl-6-(3-(trifluoromethyl)phenyl)-2,3-dihydro-1H-inden-1-yl)carbamate] yielded an IC50 of 173 nM. `CC1(C)Cc2ccc(-c3ccccc3F)cc2C1NC(=O)O[C@@H]1CN2CCC1CC2` (stereo partly drawn) [Example 57, (S)-quinuclidin-3-yl (6-(2-fluorophenyl)-2,2-dimethyl-2,3-dihydro-1H-inden-1-yl)carbamate] showed an IC50 of 49.9 nM. `CC1(C)Cc2ccc(-c3ccccc3Cl)cc2C1NC(=O)O[C@@H]1CN2CCC1CC2` (stereo partly drawn) [Example 58, (S)-quinuclidin-3-yl (6-(2-chlorophenyl)-2,2-dimethyl-2,3-dihydro-1H-inden-1-yl)carbamate] gave an IC50 of 87.8 nM. With `CC1(C)Cc2ccc(-c3ccccc3C(F)(F)F)cc2C1NC(=O)O[C@@H]1CN2CCC1CC2` (stereo partly drawn) [Example 59, (S)-quinuclidin-3-yl (2,2-dimethyl-6-(2-(trifluoromethyl)phenyl)-2,3-dihydro-1H-inden-1-yl)carbamate] the IC50 was 164 nM. For `Cc1ccc(-c2ccc3c(c2)C(NC(=O)O[C@@H]2CN4CCC2CC4)C(C)(C)C3)cc1` (stereo partly drawn) [Example 60, (S)-quinuclidin-3-yl (2,2-dimethyl-6-(p-tolyl)-2,3-dihydro-1H-inden-1-yl)carbamate], the IC50 was 112 nM. For `CC1(C)Cc2ccc(-c3ccc(OC(F)F)cc3)cc2C1NC(=O)O[C@@H]1CN2CCC1CC2` (stereo partly drawn) [Example 61, (S)-quinuclidin-3-yl (6-(4-(difluoromethoxy)phenyl)-2,2-dimethyl-2,3-dihydro-1H-inden-1-yl)carbamate], the IC50 was 39.6 nM. Work on `CC1(C)Cc2ccc(-c3ccc(F)c(F)c3)cc2C1NC(=O)O[C@@H]1CN2CCC1CC2` (stereo partly drawn) [Example 62, (S)-quinuclidin-3-yl (6-(3,4-difluorophenyl)-2,2-dimethyl-2,3-dihydro-1H-inden-1-yl)carbamate] yielded an IC50 of 103 nM. `CC1(C)Cc2ccc(-c3ccc(F)cc3F)cc2C1NC(=O)O[C@@H]1CN2CCC1CC2` (stereo partly drawn) [Example 63, (S)-quinuclidin-3-yl (6-(2,4-difluorophenyl)-2,2-dimethyl-2,3-dihydro-1H-inden-1-yl)carbamate] showed an IC50 of 117 nM. `CC1(C)Cc2ccc(-c3cccc(F)c3F)cc2C1NC(=O)O[C@@H]1CN2CCC1CC2` (stereo partly drawn) [Example 64, (S)-quinuclidin-3-yl (6-(2,3-difluorophenyl)-2,2-dimethyl-2,3-dihydro-1H-inden-1-yl)carbamate] showed an IC50 of 74.7 nM. For `CC1(C)Cc2ccc(-c3cc(F)ccc3F)cc2C1NC(=O)O[C@@H]1CN2CCC1CC2` (stereo partly drawn) [Example 65, (S)-quinuclidin-3-yl (6-(2,5-difluorophenyl)-2,2-dimethyl-2,3-dihydro-1H-inden-1-yl)carbamate], the IC50 was 56.2 nM. Molecule `CC1(C)Cc2ccc(-c3cc(F)cc(F)c3)cc2C1NC(=O)O[C@@H]1CN2CCC1CC2` (stereo partly drawn) [Example 66, (S)-quinuclidin-3-yl (6-(3,5-difluorophenyl)-2,2-dimethyl-2,3-dihydro-1H-inden-1-yl)carbamate] has an IC50 of 128 nM. In the case of `CC1(C)Cc2ccc(-c3ccc(F)c(F)c3F)cc2C1NC(=O)O[C@@H]1CN2CCC1CC2` (stereo partly drawn) [Example 67, (S)-quinuclidin-3-yl (2,2-dimethyl-6-(2,3,4-trifluorophenyl)-2,3-dihydro-1H-inden-1-yl)carbamate], the IC50 is reported as 144 nM. `CC1(C)Cc2ccc(-c3cc(Cl)cc(Cl)c3)cc2C1NC(=O)O[C@@H]1CN2CCC1CC2` (stereo partly drawn) [Example 69, (S)-quinuclidin-3-yl (6-(3,5-dichlorophenyl)-2,2-dimethyl-2,3-dihydro-1H-inden-1-yl)carbamate] was tested, and the IC50 was 400 nM. `CC1(C)Cc2ccc(-c3ccc(Cl)c(Cl)c3)cc2C1NC(=O)O[C@@H]1CN2CCC1CC2` (stereo partly drawn) [Example 70, (S)-quinuclidin-3-yl (6-(3,4-dichlorophenyl)-2,2-dimethyl-2,3-dihydro-1H-inden-1-yl)carbamate] showed an IC50 of 70.9 nM. `CC1(C)Cc2ccc(-c3cc(Cl)ccc3Cl)cc2C1NC(=O)O[C@@H]1CN2CCC1CC2` (stereo partly drawn) [Example 71, (S)-quinuclidin-3-yl (6-(2,5-dichlorophenyl)-2,2-dimethyl-2,3-dihydro-1H-inden-1-yl)carbamate] gave an IC50 of 64.3 nM. With `COCCOc1ccc(-c2ccc3c(c2)C(NC(=O)O[C@@H]2CN4CCC2CC4)C(C)(C)C3)cc1` (stereo partly drawn) [Example 72, (S)-quinuclidin-3-yl (6-(4-(2-methoxyethoxy)phenyl)-2,2-dimethyl-2,3-dihydro-1H-inden-1-yl)carbamate] the IC50 was 58.2 nM. `CC1(C)Cc2cc(-c3ccc(F)cc3)ccc2C1NC(=O)O[C@@H]1CN2CCC1CC2` (stereo partly drawn) [Example 73, (S)-quinuclidin-3-yl (5-(4-fluorophenyl)-2,2-dimethyl-2,3-dihydro-1H-inden-1-yl)carbamate] showed an IC50 of 26 nM. With `CC1(C)Cc2cc(-c3ccc(Cl)cc3)ccc2C1NC(=O)O[C@@H]1CN2CCC1CC2` (stereo partly drawn) [Example 74, (S)-quinuclidin-3-yl (5-(4-chlorophenyl)-2,2-dimethyl-2,3-dihydro-1H-inden-1-yl)carbamate] the IC50 was 13 nM. `CC1(C)Cc2cc(-c3ccc(C(F)(F)F)cc3)ccc2C1NC(=O)O[C@@H]1CN2CCC1CC2` (stereo partly drawn) [Example 75, (S)-quinuclidin-3-yl (2,2-dimethyl-5-(4-(trifluoromethyl)phenyl)-2,3-dihydro-1H-inden-1-yl)carbamate] gave an IC50 of 8.3 nM. `CC1(C)Cc2cc(-c3ccc(OC(F)(F)F)cc3)ccc2C1NC(=O)O[C@@H]1CN2CCC1CC2` (stereo partly drawn) [Example 76, (S)-quinuclidin-3-yl (2,2-dimethyl-5-(4-(trifluoromethoxy)phenyl)-2,3-dihydro-1H-inden-1-yl)carbamate] gave an IC50 of 3.7 nM. With `CC1(C)Cc2cc(-c3cccc(F)c3)ccc2C1NC(=O)O[C@@H]1CN2CCC1CC2` (stereo partly drawn) [Example 77, (S)-quinuclidin-3-yl (5-(3-fluorophenyl)-2,2-dimethyl-2,3-dihydro-1H-inden-1-yl)carbamate] the IC50 was 6.3 nM. Work on `CC1(C)Cc2cc(-c3cccc(Cl)c3)ccc2C1NC(=O)O[C@@H]1CN2CCC1CC2` (stereo partly drawn) [Example 78, (S)-quinuclidin-3-yl (5-(3-chlorophenyl)-2,2-dimethyl-2,3-dihydro-1H-inden-1-yl)carbamate] yielded an IC50 of 3.5 nM. For `CC1(C)Cc2cc(-c3cccc(C(F)(F)F)c3)ccc2C1NC(=O)O[C@@H]1CN2CCC1CC2` (stereo partly drawn) [Example 79, (S)-quinuclidin-3-yl (2,2-dimethyl-5-(3-(trifluoromethyl)phenyl)-2,3-dihydro-1H-inden-1-yl)carbamate], the IC50 was 3.9 nM. With `CC1(C)Cc2cc(-c3ccccc3F)ccc2C1NC(=O)O[C@@H]1CN2CCC1CC2` (stereo partly drawn) [Example 81, (S)-quinuclidin-3-yl (5-(2-fluorophenyl)-2,2-dimethyl-2,3-dihydro-1H-inden-1-yl)carbamate] the IC50 was 12.2 nM. In the case of `CC1(C)Cc2cc(-c3ccccc3Cl)ccc2C1NC(=O)O[C@@H]1CN2CCC1CC2` (stereo partly drawn) [Example 82, (S)-quinuclidin-3-yl (5-(2-chlorophenyl)-2,2-dimethyl-2,3-dihydro-1H-inden-1-yl)carbamate], the IC50 is reported as 3.2 nM. `CC1(C)Cc2cc(-c3ccccc3C(F)(F)F)ccc2C1NC(=O)O[C@@H]1CN2CCC1CC2` (stereo partly drawn) [Example 83, (S)-quinuclidin-3-yl (2,2-dimethyl-5-(2-(trifluoromethyl)phenyl)-2,3-dihydro-1H-inden-1-yl)carbamate] was tested, and the IC50 was 3.7 nM. `CC1(C)Cc2cc(-c3ccccc3OC(F)(F)F)ccc2C1NC(=O)O[C@@H]1CN2CCC1CC2` (stereo partly drawn) [Example 84, (S)-quinuclidin-3-yl (2,2-dimethyl-5-(2-(trifluoromethoxy)phenyl)-2,3-dihydro-1H-inden-1-yl)carbamate] was tested, and the IC50 was 4.9 nM. With `Cc1ccc(-c2ccc3c(c2)CC(C)(C)C3NC(=O)O[C@@H]2CN3CCC2CC3)cc1` (stereo partly drawn) [Example 85, (S)-quinuclidin-3-yl (2,2-dimethyl-5-(p-tolyl)-2,3-dihydro-1H-inden-1-yl)carbamate] the IC50 was 11.6 nM. For `CC1(C)Cc2cc(-c3ccc(OC(F)F)cc3)ccc2C1NC(=O)O[C@@H]1CN2CCC1CC2` (stereo partly drawn) [Example 86, (S)-quinuclidin-3-yl (5-(4-(difluoromethoxy)phenyl)-2,2-dimethyl-2,3-dihydro-1H-inden-1-yl)carbamate], the IC50 was 13.8 nM.
